Test results from patent US9403792B2, “Methods of using pyruvate kinase activators” (AGIOS PHARMACEUTICALS, INC, priority 2011, dated 2016).

Key:
Format in all cases: biochemical
PKR wt = PKR wt (Homo sapiens, UniProt P30613); assay: PKR WT Single Point Percent Activation Assay; conditions: compound at 1 μM
Protocol: PKR WT Single Point Percent Activation Assay
(§1) A compound described herein was diluted with DMSO and tested at 1 μM concentration. The enzyme was diluted in 1× Buffer: (100 mM KCl, 50 mM Tris 7.5, 5 mM MgCl2, 1 mM DTT, 0.03% BSA). 2 μL of compound solution was first added into wells, and then 180 μL of enzyme solution was added. Assays were assembled except for ADP, and plates were stored for 60 minutes at RT. 20 μL ADP was added to start the assay and assay output was evaluated using OD340 at SpectraMax. The assay was run at room temperature.
Final Concentration: PKR wt (100 ng/well), Tris pH 7.5 (50 mM), KCl (100 mM), MgCl2 (5 mM), ADP (0.48 mM), PEP (0.15 mM), NADH (180 μM), LDH (0.5 units, Sigma 59023), DTT (1 mM) and BSA (0.03%).

PKR R510Q [1] = molecular target: T1, PKR R510Q (Homo sapiens, UniProt P30613, R510Q); assay: PKR R510Q Single Point Percent Activation Assay; conditions: compound at 1 μM; for activation at 1 µM: read-out: % Act. R510Q
T1 sequence (P30613 whole entry R510Q): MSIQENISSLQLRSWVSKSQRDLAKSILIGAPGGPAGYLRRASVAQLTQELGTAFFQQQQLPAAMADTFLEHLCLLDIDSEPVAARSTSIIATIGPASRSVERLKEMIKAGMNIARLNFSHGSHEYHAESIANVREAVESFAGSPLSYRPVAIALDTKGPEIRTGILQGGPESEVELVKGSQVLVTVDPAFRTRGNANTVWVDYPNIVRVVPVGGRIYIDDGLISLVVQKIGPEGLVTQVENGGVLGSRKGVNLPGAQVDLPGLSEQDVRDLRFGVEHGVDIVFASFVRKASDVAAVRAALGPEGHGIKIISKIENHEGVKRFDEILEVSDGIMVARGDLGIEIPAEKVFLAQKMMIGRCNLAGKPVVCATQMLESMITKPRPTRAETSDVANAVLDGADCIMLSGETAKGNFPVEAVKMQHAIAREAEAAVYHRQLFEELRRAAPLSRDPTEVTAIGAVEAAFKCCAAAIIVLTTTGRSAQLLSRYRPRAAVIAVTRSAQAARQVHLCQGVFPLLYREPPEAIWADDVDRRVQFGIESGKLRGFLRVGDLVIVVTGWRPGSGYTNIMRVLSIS
Protocol: PKR R510Q Single Point Percent Activation Assay
as §1
Final Concentration: PKR R510Q (40 ng/well), Tris pH 7.5 (50 mM), KCl (100 mM), MgCl2 (5 mM), ADP (0.2 mM), PEP (0.11 mM), NADH (180 μM), LDH (0.5 units, Sigma 59023), DTT (1 mM) and BSA (0.03%).

PKR R532W [2] = molecular target: T2, PKR R532W (Homo sapiens, UniProt P30613, R532W); assay: PKR R532W Single Point Percent Activation Assay; conditions: compound at 1 μM; for activation at 1 µM: read-out: % Act. R532W
T2 sequence (P30613 whole entry R532W): as the sequence (P30613 whole entry R510Q) above, with Q510R, R532W counted along it
Protocol: PKR R532W Single Point Percent Activation Assay
as §1
Final Concentration: PKR R532W (100 ng/well), Tris pH 7.5 (50 mM), KCl (100 mM), MgCl2 (5 mM), ADP (0.36 mM), PEP (0.1 mM), NADH (180 μM), LDH (0.5 units, Sigma 59023), DTT (1 mM) and BSA (0.03%).

PKR T384W [3] = molecular target: T3, PKR T384W (Homo sapiens, UniProt P30613, T384W); assay: PKR T384W Single Point Percent Activation Assay; conditions: compound at 1 μM; for activation at 1 µM: read-out: % Act. T384W
T3 sequence (P30613 whole entry T384W): as the sequence (P30613 whole entry R510Q) above, with T384W, Q510R counted along it
Protocol: PKR T384W Single Point Percent Activation Assay
as §1, with “180 μL enzyme solution” for “180 μL of enzyme solution”
Final Concentration: PKR T384W soluble (300 ng/well), Tris pH 7.5 (50 mM), KCl (100 mM), MgCl2 (5 mM), ADP (0.08 mM), PEP (0.23 mM), NADH (180 μM), LDH (0.5 units, Sigma 59023), DTT (1 mM) and BSA (0.03%).

wild type PKR = wild type PKR (Homo sapiens, UniProt P30613); assay: PKR Mutant Assay (AC50), wild type PKR; conditions: read-out: PKR WT AC50
Chain of wild type PKR (P30613 whole entry): as the sequence (P30613 whole entry R510Q) above, with Q510R counted along it
Protocol: (§2) • PKR or PKR mutant enzyme solution was diluted in assay buffer. 2 μL of test compound was added into wells first, and then 180 μL reaction mix was added. • Reactions mixture with test compound was assembled except for ADP, and plates were stored for 60 minutes at room temperature. • 20 uL ADP was added to start reaction at room temperature and reaction progress was measured as changes in absorbance at 340 nm wavelength at room temperature. Test Compound Preparation: • Test compound stock was made at 100× concentration in 100% DMSO (10 mM) • 1 to 3 dilutions were made for 11 points (i.e. 50 μl of first concentration added to 100 μl 100% DMSO to yield 3.33 mM, 50 μl of this added to 100 μl DMSO to yield 1.11 mM, and so forth) • 1 to 100 dilution into assay (2 μl in 200 μl) yielded starting concentration of 100 μM, decreasing 3 fold for 11 points. Assay Buffer: 100 mM KCl, 50 mM Tris 7.5, 5 mM MgCl2, 1 mM DTT, 0.03% BSA Reaction Mixture: PKR mutant enzyme: 80-400 ng/well; ADP: 0.22-1.65 mM; PEP: 0.1-0.5 mM; NADH: 180 uM; LDH: 0.5 units (Sigma#59023); DTT: 1 mM; BSA: 0.03%.

PKR R510Q [4] = molecular target: T1, PKR R510Q; assay: PKR Mutant Assay (AC50), PKR R510Q
Protocol: as §2

PKR R532W [5] = molecular target: T2, PKR R532W; assay: PKR Mutant Assay (AC50), PKR R532W
Protocol: as §2

PKR T384W [6] = molecular target: T3, PKR T384W; assay: PKR Mutant Assay (AC50), PKR T384W
Protocol: as §2

PKR G332S = PKR G332S (Homo sapiens, UniProt P30613, G332S); assay: PKR Mutant Assay (AC50), PKR G332S
Chain of PKR G332S (P30613 whole entry G332S): as the sequence (P30613 whole entry R510Q) above, with G332S, Q510R counted along it
Protocol: as §2

PKR G364D = PKR G364D (Homo sapiens, UniProt P30613, G364D); assay: PKR Mutant Assay (AC50), PKR G364D
Chain of PKR G364D (P30613 whole entry G364D): as the sequence (P30613 whole entry R510Q) above, with G364D, Q510R counted along it
Protocol: as §2

PKR R479H = PKR R479H (Homo sapiens, UniProt P30613, R479H); assay: PKR Mutant Assay (AC50), PKR R479H
Chain of PKR R479H (P30613 whole entry R479H): as the sequence (P30613 whole entry R510Q) above, with R479H, Q510R counted along it
Protocol: as §2

Chain of PKR wt (P30613 whole entry): as the sequence (P30613 whole entry R510Q) above, with Q510R counted along it

CCCCCn1ncc2c3sc(C)cc3n(C)c2c1=O
activation at 1 µM (PKR wt): 101 to 500% | activation at 1 µM (PKR R510Q [1]): 101 to 500% | activation at 1 µM (PKR R532W [2]): 101 to 500% | activation at 1 µM (PKR T384W [3]): 101 to 500%

Nc1cccc(S(=O)(=O)N2CCN(S(=O)(=O)c3c(F)cccc3F)CC2)c1
activation at 1 µM (PKR wt): 101 to 500% | activation at 1 µM (PKR R510Q [1]): 101 to 500% | activation at 1 µM (PKR R532W [2]): 101 to 500% | activation at 1 µM (PKR T384W [3]): 101 to 500%

COc1cc(F)c(S(=O)(=O)N2CCN(S(=O)(=O)c3cccc(N)c3)CC2)c(F)c1
activation at 1 µM (PKR wt): 101 to 500% | activation at 1 µM (PKR R510Q [1]): 101 to 500% | activation at 1 µM (PKR R532W [2]): 101 to 500% | activation at 1 µM (PKR T384W [3]): 101 to 500%

Cn1c2cc([S+](C)[O-])sc2c2cnn(Cc3ccccc3F)c(=O)c21 (centres unmarked)
activation at 1 µM (PKR wt): 101 to 500% | activation at 1 µM (PKR R510Q [1]): 101 to 500% | activation at 1 µM (PKR R532W [2]): 101 to 500% | activation at 1 µM (PKR T384W [3]): 101 to 500% | AC50 (wild type PKR): 101 to 500 nM | AC50 (PKR R510Q [4]): 101 to 500 nM | AC50 (PKR R532W [5]): > 500 nM | AC50 (PKR T384W [6]): > 500 nM | AC50 (PKR G332S): > 500 nM | AC50 (PKR G364D): 101 to 500 nM | AC50 (PKR R479H): 101 to 500 nM

COc1cccc(Cn2ncc3c4sc([S+](C)[O-])cc4n(C)c3c2=O)c1 (centres unmarked)
activation at 1 µM (PKR wt): 1 to 100% | activation at 1 µM (PKR R510Q [1]): 101 to 500% | activation at 1 µM (PKR R532W [2]): 101 to 500% | activation at 1 µM (PKR T384W [3]): 1 to 100% | AC50 (wild type PKR): < 100 nM | AC50 (PKR R510Q [4]): < 100 nM | AC50 (PKR R532W [5]): < 100 nM | AC50 (PKR T384W [6]): < 100 nM | AC50 (PKR G332S): < 100 nM | AC50 (PKR G364D): < 100 nM | AC50 (PKR R479H): < 100 nM

O=S(=O)(c1ccc2c(c1)OCCO2)N1CCN(S(=O)(=O)c2c(F)cccc2F)CC1
activation at 1 µM (PKR wt): 101 to 500% | activation at 1 µM (PKR R510Q [1]): 101 to 500% | activation at 1 µM (PKR R532W [2]): 1 to 100% | activation at 1 µM (PKR T384W [3]): 1 to 100%

Nc1cccc(S(=O)(=O)N2CCN(S(=O)(=O)c3ccc4c(c3)OCCO4)CC2)c1
activation at 1 µM (PKR wt): 1 to 100% | activation at 1 µM (PKR R510Q [1]): 1 to 100% | activation at 1 µM (PKR R532W [2]): 101 to 500% | activation at 1 µM (PKR T384W [3]): 1 to 100%

Nc1cccc(S(=O)(=O)N2CCCN(S(=O)(=O)c3ccc4c(c3)OCCO4)CC2)c1 [drawing 17]
% Act. WT (PKR wt): B (a % activation at 1 μM of from 101 to 500) | % Act. R510Q (PKR R510Q [1]): B (a % activation at 1 μM of from 101 to 500) | % Act. R532W (PKR R532W [2]): A (a % activation at 1 μM of from 1 to 100) | % Act. T384W (PKR T384W [3]): B (a % activation at 1 μM of from 101 to 500)

Cn1c2cc([S+](C)[O-])sc2c2cnn(Cc3cccc(O)c3)c(=O)c21 (centres unmarked)
activation at 1 µM (PKR wt): 101 to 500% | activation at 1 µM (PKR R510Q [1]): 101 to 500% | activation at 1 µM (PKR R532W [2]): 101 to 500% | activation at 1 µM (PKR T384W [3]): 101 to 500% | AC50 (wild type PKR): < 100 nM | AC50 (PKR R510Q [4]): < 100 nM | AC50 (PKR R532W [5]): < 100 nM | AC50 (PKR T384W [6]): < 100 nM | AC50 (PKR G332S): < 100 nM | AC50 (PKR G364D): < 100 nM | AC50 (PKR R479H): < 100 nM

Nc1cccc(S(=O)(=O)N2CCCN(S(=O)(=O)c3ccc4c(c3)OCCO4)CC2)c1 [drawing 23]
activation at 1 µM (PKR wt): 101 to 500% | activation at 1 µM (PKR R510Q [1]): 101 to 500% | % Act. R532W (PKR R532W [2]): B (a % activation at 1 μM of from 101 to 500) | activation at 1 µM (PKR T384W [3]): 101 to 500%

O=S(=O)(c1ccc2c(c1)OCCO2)N1CCCN(S(=O)(=O)c2c(F)cccc2F)CC1
activation at 1 µM (PKR wt): 101 to 500% | activation at 1 µM (PKR R510Q [1]): 101 to 500% | activation at 1 µM (PKR R532W [2]): 101 to 500% | activation at 1 µM (PKR T384W [3]): 101 to 500%

COc1cc(F)c(S(=O)(=O)N2CCCN(S(=O)(=O)c3cccc(N)c3)CC2)c(F)c1
activation at 1 µM (PKR wt): 101 to 500% | activation at 1 µM (PKR R510Q [1]): 101 to 500% | activation at 1 µM (PKR R532W [2]): 101 to 500% | activation at 1 µM (PKR T384W [3]): 101 to 500%

CSc1cc2c(s1)c1cnn(Cc3cccc(O)c3)c(=O)c1n2C
activation at 1 µM (PKR wt): 101 to 500% | activation at 1 µM (PKR R510Q [1]): > 500% | activation at 1 µM (PKR R532W [2]): 101 to 500% | activation at 1 µM (PKR T384W [3]): 101 to 500% | AC50 (wild type PKR): < 100 nM | AC50 (PKR R510Q [4]): < 100 nM | AC50 (PKR R532W [5]): < 100 nM | AC50 (PKR T384W [6]): < 100 nM | AC50 (PKR G332S): < 100 nM | AC50 (PKR G364D): < 100 nM | AC50 (PKR R479H): < 100 nM
